According to the SangsterLogP compilation:

Assay: method code SF-AS, from PMID: 744242
Settings: pH 5.6

Structure (SMILES)	logD
CCOC(=O)CCCCn1nc2ccccc2n1	2.85
CCOC(=O)CCCCn1nnc2ccccc21	2.2
CC(C)n1nnc2ccccc21	1.98
Cn1nnc2ccccc21	1.13
CCOC(=O)CCCCCn1nc2ccccc2n1	3.17
NC(=O)Cn1nnc2ccccc21	-0.11
NC(=O)CCCCCn1nc2ccccc2n1	1.41
CCOC(=O)CCCCCn1nnc2ccccc21	2.68
NC(=O)CCCCn1nc2ccccc2n1	1.01
NC(=O)CCCCCn1nnc2ccccc21	0.79
CCCn1nnc2ccccc21	2.13
CCCCn1nnc2ccccc21	2.57
NC(=O)CCCCn1nnc2ccccc21	0.58
CCn1nnc2ccccc21	1.58
CCOC(=O)CCCn1nnc2ccccc21	1.86
OCCCn1nnc2ccccc21	0.91
CCOC(=O)Cn1nnc2ccccc21	1.3
NC(=O)CCCn1nnc2ccccc21	0.37
OCCn1nnc2ccccc21	0.5
CCOC(=O)CCn1nnc2ccccc21	1.6
CCCCCn1nnc2ccccc21	3.22
CCCCCCn1nnc2ccccc21	3.7

Further lines, results first:

logD	Structure (SMILES)
0.92	OCCn1nc2ccccc2n1
1.64	Cn1nc2ccccc2n1
3.78	CCCCC(C)n1nc2ccccc2n1 (stereo not drawn)
2.54	CC(C)n1nc2ccccc2n1
2.95	CCC(C)n1nc2ccccc2n1 (stereo not drawn)
2.41	CCOC(=O)CCCn1nc2ccccc2n1
0.66	NC(=O)CCn1nc2ccccc2n1
3.12	CCCCn1nc2ccccc2n1
3.63	CCCCCn1nc2ccccc2n1
0.78	NC(=O)CCCn1nc2ccccc2n1
3.44	CCCCC(C)n1nnc2ccccc21 (stereo not drawn)
3.42	CCCC(C)n1nc2ccccc2n1 (stereo not drawn)
2.31	CCC(C)n1nnc2ccccc21 (stereo not drawn)
0.28	NC(=O)Cn1nc2ccccc2n1
2.1	CCn1nc2ccccc2n1
1.85	CCOC(=O)Cn1nc2ccccc2n1
2.12	CCOC(=O)CCn1nc2ccccc2n1
2.95	CCCC(C)n1nnc2ccccc21 (stereo not drawn)
4.24	CCCCCCn1nc2ccccc2n1
1.4	OCCCn1nc2ccccc2n1
2.53	CCCn1nc2ccccc2n1
